Patent publication US20050255493A1, “Molecular targeting of the IGF-1 receptor” (priority 2002, published 2005)

Key:
[1] = test system: IGF1R mRNA; assay: Oligonucleotide scanning array hybridisation with labelled transcript; type: binding, human; details: for Rel hyb intensity: relative to the most strongly hybridising sequence on the array; for Hyb intensity: scanning array probed with labelled IGF1R mRNA
Description: Scanning arrays complementary to the region of the IGF1R mRNA from position 537-685 were prepared using the standard techniques described in Southern E. M. et al., Nucleic Acids Res., 1994, 22(8): 1368-1373; and Sohail, M. and Southern, E. M. “Using oligonucleotide scanning arrays to find effective antisense reagents”, Methods in Molecular Biology, vol. 170: DNA Arrays: Methods and Protocols, Ed J. B. Rampal, Humana Press Inc., Totowa, N.J.
The scanning arrays comprise sets of oligonucleotides of various lengths. A series of oligonucleotides, complementary to the target mRNA, is made by sequential coupling of nucleotides to a solid surface. The DNA synthesis reagents are applied to a confined area on the surface of the solid support using a mask. The mask is shifted along the surface after each round of coupling, resulting in a series of oligonucleotides each complementary to a region of the target sequence.
• 2. Remove 1 μL for quantitation (see below). • 3. Remove unincorporated label by Sephadex® G25 column chromatography (see Note 11). • 4. Save 1 μL of the purified transcript for quantitation (see below). • 5. Check the integrity of the transcript by denaturing polyacrylamide gel electrophoresis (10). • 6. Add 10 μL of the scintillation fluid to the samples saved in Steps 2 and 4. • 7. Mix by vortexing and count the samples in a scintillation counter for 1 min. • 8. Calculate the percent incorporation: [formula] • 9. Calculate the amount of RNA made: [formula] Hybridisation to Arrays Made on Polypropylene • 1. Place the array in the hybridisation tube, coiling it in a spiral. • 2. Dilute the radiolabelled transcript in an appropriate volume (10-20 mL depending upon the size of the array and the hybridisation tube) of hybridisation buffer. The mix should cover the array along the length of the tube. • 3. Place items 1 and 2 in the oven at desired temperature for 30 min. Also put approximately 100 mL of the hybridisation buffer in the oven: this is to be used to wash the array at the end of hybridisation. • 4. Pour the hybridisation mix into the tube containing the array and hybridise for 3-4 h. • 5. Remove the hybridisation mix. Briefly wash the array with the hybridisation buffer from Step 3, air dry, cover with cling film and expose to a storage phosphor screen for 16-20 h (see Note 12). • 6. Scan the screen on PhosphorImager or STORM and analyse the image using xvseq (see below). Hybridisation to Arrays Made on Glass • 1. Clean the non-array glass plate with acetone and ethanol to ensure it is grease-free and siliconise it by treatment with dimethyl dichlorosilane solution and place it in lidded box. Also place moist paper towel in the box. • 2. Dilute the radiolabelled transcript in an appropriate volume of the hybridisation buffer (for example, for an array of 250 mm×50 mm use 500-750 μL). • 3. Place items 1 and 2 in an incubator at desired temprature for 30 min. Also put approximately 100 mL of the hybridisation buffer in the oven: this is to be used to wash the array at the end of hybridisation. • 4. Using a micropipette, pipette the hybridisation mix in a line evenly along the length of the non-array glass plate, avoiding formation of air bubbles. • 5. Starting at one end, carefully place the scanning array (face down) on top of the hybridisation mix. The mix will spread out and form a thin film between the two plates. Incubate for 3-4 h. • 6. Separate the plates from each other and wash the array plate with hybridisation buffer to remove unbound mix. Drain the plate, air dry, cover with cling film and expose to a storage phosphor screen for 16-20 h. • 7. Scan the screen on PhosphorImager or STORM and analyse the image using xvseq (see below). Alternative Hybridisation Protocol for Glass or Polypropylene • 1. Assemble with clips the array plate (or polypropylene array pasted with PhotoMount™ on a glass plate) and the non-array plate, using rubber tubing as spacers on two sides. • 2. […]

[2] = test system: IGF1R; assay: IGF1R expression in UC101 ovarian cancer cells treated with 18mer ASOs; type: cell-based, human
Description: The human and murine cell lines used in this study were cultured in RPMI 1640 plus 10% FCS at 37° C. in a humidified atmosphere of 5% CO2. The cultures were negative when tested for Mycoplasma infection. Cultures were passaged the day before transfection to achieve 30-50% confluence the following day. Initial transfections of ASOs used 1-2.5 μg/ml Cytofectin (Glen Research, Sterling, Va.), according to the manufacturer's instructions. Latterly Oligofectamine (Life Sciences) has been used for all ASO and RNAi transfections. The method was as described (see manufacturer's instructions and www.dharmacon.com) with minor modifications. For transfection of monolayers seeded in 6 well plates, 5 μl phosphorothioate oligonucleotide or RNA duplex at 100× final concentration were mixed with 2501 serum-free Optimem (Gibco-BRL). In a separate tube 2 μl Oligofectamine was mixed with 68 μl Optimem. After 10 min incubation at room temperature the contents of the two tubes were mixed and incubated for a further 25 min at room temperature. Monolayers were washed with 1-2 ml Optimem. To the cells were added 175 μl Optimem followed by the 325 μl complexes. […] After 48 hr incubation effects on IGF1R and IR expression were determined by immunoblotting. […]
IGF1R expression was assessed by immunoblotting as previously described (Macaulay et al 2001). […] Lysates were centrifuged for 15 minutes at 14,000 g, the protein concentration of supernatants was measured using BCA assay reagent (Pierce), and equivalent amounts of protein were separated on 7.5% SDS-PAGE gels and transferred to nitrocellulose. Target protein levels were assessed using antibodies to the β-subunit of the IGF1R or IR (Santa Cruz), phospho-Ser 473 Akt or total Akt (Cell Signalling, New England Biolabs) or β-tubulin (Sigma). Activated IGF1R was detected by immunoprecipitation for phosphotyrosine (P-Tyr-100, Cell Signaling Technology). Primary antibodies were detected with HRP-conjugated secondary antibodies (Dako), and ECL Plus (Amersham Pharmacia). […]

[3] = test system: IGF1R; assay: IGF1R level by immunoblotting in transfected MDA-231 cells; type: cell-based, human; details: MDA-231 cells, 300 nM ASO, 48 hr, vs scrambled control
Description: (§1) The human and murine cell lines used in this study were cultured in RPMI 1640 plus 10% FCS at 37° C. in a humidified atmosphere of 5% CO2. The cultures were negative when tested for Mycoplasma infection. Cultures were passaged the day before transfection to achieve 30-50% confluence the following day. Initial transfections of ASOs used 1-2.5 μg/ml Cytofectin (Glen Research, Sterling, Va.), according to the manufacturer's instructions. Latterly Oligofectamine (Life Sciences) has been used for all ASO and RNAi transfections. The method was as described (see manufacturer's instructions and www.dharmacon.com) with minor modifications. For transfection of monolayers seeded in 6 well plates, 5 μl phosphorothioate oligonucleotide or RNA duplex at 100× final concentration were mixed with 2501 serum-free Optimem (Gibco-BRL). In a separate tube 2 μl Oligofectamine was mixed with 68 μl Optimem. After 10 min incubation at room temperature the contents of the two tubes were mixed and incubated for a further 25 min at room temperature. Monolayers were washed with 1-2 ml Optimem. To the cells were added 175 μl Optimem followed by the 325 μl complexes. Volumes were scaled up by factors of 2.22 or 6.05 for transfection in 60 mm or 100 mm dishes respectively. Cultures were incubated at 37° C. for 4 hr, and then 50 μl FCS and 3.5 ml RPMI plus 5% FCS were added to each well. After 48 hr incubation effects on IGF1R and IR expression were determined by immunoblotting. Some transfected cultures were serum-starved overnight, divided into two aliquots and treated with 10 nM Long R3-IGF-I (GroPep, Adelaide) or diluent for 30 min at 37° C. prior to lysis.
(§2) IGF1R expression was assessed by immunoblotting as previously described (Macaulay et al 2001). After washing in ice-cold PBS, cells were lysed in 50 mM Hepes pH 7.5, 100 mM NaCl, 10 mM EDTA, 1% Triton-X-100, 4 mM sodium pyrophosphate, 2 mM sodium orthovanadate, 10 mM sodium fluoride, 1 mM PMSF, 2 μg/ml each leupeptin and aprotinin. Lysates were centrifuged for 15 minutes at 14,000 g, the protein concentration of supernatants was measured using BCA assay reagent (Pierce), and equivalent amounts of protein were separated on 7.5% SDS-PAGE gels and transferred to nitrocellulose. Target protein levels were assessed using antibodies to the β-subunit of the IGF1R or IR (Santa Cruz), phospho-Ser 473 Akt or total Akt (Cell Signalling, New England Biolabs) or β-tubulin (Sigma). Activated IGF1R was detected by immunoprecipitation for phosphotyrosine (P-Tyr-100, Cell Signaling Technology). Primary antibodies were detected with HRP-conjugated secondary antibodies (Dako), and ECL Plus (Amersham Pharmacia).
(§3) The ASOs and RNAi duplexes were transfected into MDA-231 cells (human ER negative breast cancer) using Cytofectin or Oligofectamine, as described above. After 48 hr the cells were lysed, and IGF1R and IR levels were measured by immunoblotting. The intensity of the autoradiographic bands was quantified by densitometry, and IGF1R (or IR) levels were corrected for loading differences. The specific IGF1R or IR results are presented as % IGF1R (or IR) level of that in cells transfected with the same concentration of an appropriate control. This was a scrambled control oligonucleotide for ASOs, and an inverted RNA duplex for RNAi.

[4] = test system: IR; assay: IR level by immunoblotting in transfected MDA-231 cells; type: cell-based, human
Description: as §1, §2, §3

[5] = test system: IGF1R; assay: IGF1R levels by immunoblotting in human tumour cell lines transfected with RNAi duplexes; type: cell-based; details: human ovarian (UC101) and prostate (DU145) cancer cells, 10 nM
Description: as §1
as §2, with “Pharmacia). […]” for “Pharmacia).”
Tumour cells were transfected with 10 nM duplexes and IGF1R levels were measured after 48 hr. After correction for loading differences IGF1R levels in cells transfected with RNAi were expressed as % of levels in cells transfected with equivalent inverted control duplex.

[6] = test system: MDA-MB-231 cells; assay: Clonogenic survival and post-irradiation survival (SF2) of transfected MDA-MB-231 cells; type: cell-based, human; details: MDA-MB-231, 100 nM, unirradiated
Description: FIG. 7 A) MDA-MB-231 cells transfected with 100 nM RNA duplexes were serum-starved overnight and treated with 50 nM IGF-I for 30 min. […] Results represent mean±sem of colony counts in triplicate dishes. Similar results were obtained in two further clonogenic assays. • C) Clonogenic survival of transfected MDA-MB-231 cells that were unirradiated or irradiated at 2Gy. The fraction surviving 2Gy irradiation (SF2) is shown as mean±sem of three independent assays.
The effect of transfection with 100 nM ASO4 or siRNA duplexes R4 and R5, equivalent to strongly and weakly hybridizing ASOs respectively, on colony forming efficiency and post-irradiation survival was also evaluated. […] This in turn illustrates the utility of hybridisation to the scanning ASO array in the selection of siRNA reagents, since relative hybridisation to the array is found to be predictive of activity in RNA interference and biological efficacy.

[7] = test system: UC101 human ovarian cancer cells; assay: Tumorigenicity of UC101 ovarian cancer cells transfected with siRNA (xenografts); type: in vivo, female athymic (nu/nu mice); details: UC101 cells transfected with 200 nM siRNA, nu/nu mice
Description: UC101 ovarian cancer cells were transfected with 200 nM siRNA, mixed with irradiated NIH-3T3 cells and inoculated into the flanks of female athymic (nu/nu mice).
Tumorigenicity testing was conducted using UC101 human ovarian cancer cells transfected with 200 nM siRNA. After 48 hr the cells were inoculated into the flanks of female athymic (nu/nu mice), using 5×10^6 tumour cells mixed with 5×10^6 irradiated NIH-3T3 cells per mouse. Tumours were measured and volumes calculated as described (Macaulay et al., Oncogene 20: 2029-40, 2001). All procedures were performed in accordance with the Home Office Scientific Procedures Act 1986, and with the approval of the Animal Ethics Committee of Cancer Research UK.

Row | Substance | Rel hyb intensity [1] | Hyb intensity [1] | IGF1R expression, % of levels in cells treated with scrambled control [2] | Hybridisation to IGF1R mRNA on scanning array ([1]; 37° C. (and 23° C.)) | IGF1R Protein Level (% control) [3] | IR Protein Level (% control) ([4]; 300 nM ASO, 48 hr, vs scrambled control) | IGF1R downregulation, R4 compared with R5 [5] | Clonogenic survival [6] | Tumour development [7] | IR downregulation ([4]; TSS ASO at 300 nM)
1 | ASO2/18mer: phosphorothioate antisense oligonucleotide GGTCTTCTCACACATCGG, SEQ ID NO:6 (DNA, all phosphorothioate, methylation of C not given here) | 1.00 | 56,026 | 39% of levels in cells treated with Scr2 | – | – | – | – | – | – | –
2 | ASO6: phosphorothioate antisense oligonucleotide CTTATTCCCCACAATGTA, SEQ ID NO:17; poorly hybridising comparison (DNA, all phosphorothioate, methylation of C not given here) | 0.01 | 560 | 98% of levels in cells treated with Scr6 | hybridises poorly | ˜150 % control | 100 | – | – | – | –
3 | R5: RNAi duplex UGAGUACAACUACCGCUGCTT / TTACUCAUGUUGAUGGCGACG, SEQ ID NO:32 (UGAGUACAACUACCGCUGCNN; second strand not cited, chemistry not fully specified) | – | – | – | – | – | – | induced IGF1R downregulation | inhibited survival | rapidly growing tumours | –
4 | TSS ASO: ASO TCCTCCGGAGCCAGACTT, SEQ ID NO:21, complementary to human IGF1R translation initiation site, identical to that described by Baserga et al. (DNA, all phosphorothioate, methylation of C not given here) [reference compound] | – | – | 33% of levels in cells treated with | – | – | – | – | – | – | detectable reduction in IR levels
